Data taken from patent US20160058829A1, “ANTI-FIBROTIC PEPTIDES AND THEIR USE IN METHODS FOR TREATING DISEASES AND DISORDERS CHARACTERIZED BY FIBROSIS” (Thrasos Innovation, Inc., priority 2011, published 2016).
“Also recorded” adds a separate entry of the source. Positions of bridges follow the written chain, without caps; N, C: chain ends.

Legend:
p38 MAPK = p38 MAPK phosphorylation in HK-2 cells; type: cell-based, human; conditions: HK-2 cells
Description: The significance of p38 MAPK is that this protein is implicated as a non-Smad-dependent pathway for TGF-β-dependent EMT. Other non-Smad-dependent pathways implicated in TGF-β-dependent EMT include RhoA, Ras, PI3 kinase, Notch, and Wnt signaling pathways.
It has been shown that regulation p38 MAPK activity by pro-inflammatory factors has implications in fibrosis.

HK-2 cells = assay: TNF-α-induced inflammatory cytokine production in HK-2 cells (ELISA); type: cell-based, human
Procedure: FIG. 37 provides a bar graph showing a comparison of the effects of THR-123 (or “THR-1405”) and the specific inhibitor SB 203580 on the level of TNF-α-induced IL-6 production, an inflammatory marker, in human renal tubule epithelial cells (HK-2).
FIG. 47A-FIG. 47C Anti-inflammatory activity of THR-123. PTEC-derived HK-2 (HK-2) cells were culture on 24-well plate (30,000 cells/well). Cells are exposed to K-SFM medium alone or TNF-α (5 ng/ml). Twenty hours after TNF-α incubation, cells are washed twice by pre-warmed culture media and subsequently cells are incubated with various concentration of THR-123 or BMP7 for 60 hours. At the end of incubation, culture medias are harvested and ELISA analysis are performed. FIG. 47A: IL-6, FIG. 47B: IL-8 and FIG. 47C: ICAM-1 results are shown. Analyze are performed in triplicates and data are shown as mean±s.e.m. in the graph.
Preliminary screening for optimization was based on anti-inflammatory efficacy in an in vitro cell-based assay using a human renal tubular epithelial cell line (HK-2). The assay tested the ability of compounds to reverse the increase in production of cytokine IL-6 that resulted from stimulation of the cells with tumor necrosis factor (TNF)-α. Sequence-activity analysis was carried out using the SVA program. After six optimization cycles, THR-123 (FIG. 2A) emerged as the lead compound, which was further evaluated in other relevant anti-fibrosis assays (vide infra).
Human proximal tubular epithelial cells-derived HK-2 cells were culture on 24-well plate (30,000 cells/well). Cells are exposed to K-SFM medium alone or […] (5 ng/ml). Twenty hours after TNF-α incubation, cells are washed twice by pre-warmed culture media and subsequently cells are incubated with various concentration of THR-123 or BMP7 for 60 hours. At the end of incubation, culture medias are harvested and ELISA analysis for IL-6, IL-8 and ICAM-1 are performed.

[1] = system: human proximal tubule epithelial cells (HK2); assay: D-glucose-induced EMT assay, E-cadherin immunofluorescence with colorimetric image analysis; type: cell-based; conditions: HK2 cells, high D-glucose
Procedure: Chronic hyperglycemia is a known cause of renal fibrosis in type 2 diabetes. The assay in this example induces the transdifferentiation from the epithelial to the mesenchymal phenotype (EMT) in human proximal tubule epithelial cells (HK2) by exposing them to high levels of D-glucose (100 mM and 200 mM). […] Exposure to 100 mM D-glucose results in the loss of E-cadherine expression as evidenced by the loss of the fluorescene signal. Using this assay test compounds are evaluated based on their ability to inhibit the EMT processes in the presence of high levels of D-glucose. FIGS. 4-16 are fluorescence micrographs of HK2 cells exposed to 100 mM D-glucose and 100 uM of SEQ IS NOs 1 through 11, respectively. Note that all but SEQ ID NOs 10 and 11 were able to preserve the epithelial phenotype (i.e., inhibit the EMT).
Results are provided in the context of FIG. 1 and Table 3, below. In Table 3 below, compound response is scored using image analysis as described herein in the method of Methods and Materials, part C. A 0% response corresponds to the signal for 100 mM (or 200 mM) D-glucose (untreated) while the 100% response corresponds to the signal for media in the absence of D-glucose.
It has been shown that transdifferentiation of proximal tubular epithelial cells is a critical step in the development of renal fibrosis, and that this is associated with a loss of the epithelial phenotypic marker, E-cadherin expression. This provides the basis for the development of a cell-based screening assay in which high concentrations of D-Glucose (50-100 mM) are used to induce a loss of E-cadherin expression in human renal proximal tubular epithelial (HK-2) cells, and compounds are tested for their ability to reverse the loss E-cadherin expression.
Materials: • Human proximal tubular epithelial cells, HK-2 (ATCC #CRL-2190) • Serum-free keratinocyte medium (GIBCO #17005-042, K-SFM) • Epidermal growth factor (EGF: 5 ng/mL) • Bovine pituitary extract (BPE: 40 ug/mL) • Primary antibody, Mouse IgG anti-E-cadherin (R&D Systems # MAB1838) • BSA [Sigma #A7030] • secondary antibody, FITC-conjugated Goat anti-mouse IgG (Fab2) fragment (Sigma-Aldrich # F-2653) • Paraformaldehyde (10%)) • Triton X-100 (Sigma # T-9284) • PBS (Fisher Scientific #BP399-1) • D-PBS (Invitrogen #14190-144) • Polypropylene tips (Axygen, Inc. 0.5-10 uL, cat # T-300-L-R; 1-200 uL, Cat # T-200-L-R; 1-1000 uL, Cat # T-1000-C-L-R) • 50 mL polypropylene culture tubes (Fisher Scientific, cat #06-443-18) • 24-well Coster cell culture plates (Fisher Scientific #07-200-84)
Reagents & Test Samples: • Positive control: BMP-7, assayed at concentrations 0.1 and 1 ug/mL • Test compounds (peptides): each tested at final concentrations 100 uM and 200 uM.
Assay Procedure for Cell Culture Assay: • Run assay in 24-well culture plates. • Seed HK-2 cells at a density between 25,000 and 30,000 cells per well in lmL K-SFM medium with supplements added (growth medium) • Incubate HK-2 cells for 24 hours at 37° C., and let cells attach the plate • Next Day afternoon, change the medium with K-SFM medium with no added supplements (serum free medium) in all wells except the first two control wells. • Continue incubating HK-2 cells overnight at 37° C. • Next Day, aspirate the medium from all wells. Incubate the cells in growth medium (first two control wells) or expose them to test compounds for 2 hours at 37° C. Final concentrations of each Test compound are 100 and 200 uM. BMP-7 serves as a positive control in the assay. • After incubation, add D-glucose to all wells except first two control wells. Final concentrations of D-Glucose are 50 and 100 mM. • Incubate HK-2 cells for 60 hours at 37° C. • Aspirate the medium from all wells. To the wells, add pre-warmed growth medium or serum free medium containing D-glucose alone or D-glucose and test compound or D-glucose and BMP-7. Final concentrations of D-Glucose and Test compound are the same as above. • Continue incubating HK-2 cells for 24 hours at 37° C. […]

[2] = system: Streptozotocin-induced diabetic CD-1 mice; assay: Advanced diabetic nephropathy, captopril and captopril/THR-123 combination (month 7-8)

With `C[S+]([O-])c1ccc(-c2nc(-c3ccncc3)c(-c3ccc(F)cc3)[nH]2)cc1` (stereo not drawn) [SB 203580, reference compound] the “basal p38 phosphorylation” value (p38 MAPK) was “inhibited p38 phosphorylation” and the “TNF-α-induced IL-6 production” value (HK-2 cells; HK-2 cells) was “significantly reduced”.
In the case of “(H)-CYYDDSSSVLCKKYRS-(OH) (H-CYYDDSSSVLCKKYRS-OH; disulfide 1-11; SMILES CC(C)C[C@@H]1NC(=O)[C@H](C(C)C)NC(=O)[C@H](CO)NC(=O)[C@H](CO)NC(=O)[C@H](CO)NC(=O)[C@H](CC(=O)O)NC(=O)[C@H](CC(=O)O)NC(=O)[C@H](Cc2ccc(O)cc2)NC(=O)[C@H](Cc2ccc(O)cc2)NC(=O)[C@@H](N)CSSC[C@@H](C(=O)N[C@@H](CCCCN)C(=O)N[C@@H](CCCCN)C(=O)N[C@@H](Cc2ccc(O)cc2)C(=O)N[C@@H](CCCNC(=N)N)C(=O)N[C@@H](CO)C(=O)O)NC1=O) [SEQ ID NO: 11]”, the “preservation of the epithelial phenotype (inhibition of EMT), anti-fibrotic effect” value [1] was “very weak anti-fibrotic effect; also recorded: unable to inhibit the EMT process” and the “activity in anti-inflammatory assays” value (HK-2 cells) was “positive”.
With `C[C@H](CS)C(=O)N1CCC[C@H]1C(=O)O` [captopril] the mesangial matrix expansion ([2]; CPR p.o. 50 mg/Kg/day, THR-123 p.o. 5 mg/Kg/day, month 7 to 8) was “did not inhibit progression of mesangial matrix expansion”, the “EMT program (E-cadherin/FSP1 double positive tubules)” value ([2]; month 7 to 8 treatment) was “inhibited” and the macrophage infiltration ([2]; month 7 to 8 treatment) was “partially”. For the same compound, the “tubule cell apoptosis (TUNEL) in diabetic kidney” value ([2]; month 7 to 8 treatment) was “significantly inhibited apoptosis” and the macrophage infiltration ([2]; month 7 to 8 treatment, listed as CPR) was “inhibited macrophage infiltration”.
